Assay results from patent publication US10919844B2, “Antibacterials and/or modulators of biofilm formation and methods of using the same” (Indiana University Research and Technology Corporation, priority 2015, dated 2021).
“Also recorded” adds a separate entry of the source. Each block holds one compound with its values, some of them ahead of it.

Key:
Pseudomonas aeruginosa = experiment: P. aeruginosa biofilm formation assay (K357 biofilm assay, crystal violet OD readout); format: cell-based; conditions: for activity in the Biofilm Assay: FIG. 23; for activity of purified sample in the biofilm assay: FIGS. 26-28; for activity in preliminary screens: FIG. 1, compounds in red
Source text: A straightforward biological assay was developed to provide for the study these important bacterial biofilm communities. This assay also provided an efficient means for screening for compounds that have an effect on bacterial growth and/or biofilm formation.
The racemic amino acid derivatives 1 (synthesized in row A of each Bill-Board) are then screened for biological activity (antibacterial activity in a Kirby-Bauer disc plate assay) and/or K357 laboratory (assay for biofilm formation by Pseudomonas aeruginosa).
Referring now to FIG. 3, reproducible P. aeruginosa Biofilm Assays were carried out using newly synthesized twenty-one “unnatural” amino acids. See George A. O'Toole, Microtiter Dish Biofilm Formation Assay, J. VIS EXP. 2011; (47): 2437, disclosures of which are incorporated by reference in its entirety to the extent that they are not inconsistent with the explicit teachings of this specification.
Referring to FIGS. 34-35, all newly synthesized compounds prepared according to the schemes described above were assayed for biofilm formation in multiplicate 24 well plates at a screening dose of 20 μg/mL using crystal violet optical density (OD) readings as the readout. Results were expressed as % biofilm formation relative to a control (control=bacteria alone=100% biofilm formation). The procedure for the biofilm assay was the same as that used by students in the K357 biofilm laboratory.
Referring now to FIGS. 36-38, all compounds assayed in either 96 well or 24 well plates at a screening dose of either 20 or 40 μg/mL, using a biofilm assay with crystal violet optical density (OD) readings as the readout. Results were expressed as % biofilm formation (control=bacteria alone=100% biofilm formation). The procedure for the biofilm assay was the same as that used by students in the K357 biofilm laboratory.

[1] = water-solubility noted during extractive work-up; format: physicochemical; conditions: basic aqueous phase, extraction with dichloromethane

Compound: NC(Cc1ccc(F)c(F)c1)C(=O)O (stereo not shown) [3,4-F2, 2-Amino-3-(3,4-difluorophenyl)propanoic acid]
- activity in the Biofilm Assay (Pseudomonas aeruginosa): showed activity
- potency in modulating/inhibiting biofilm formation (SAR studies) (Pseudomonas aeruginosa): potent activity
- activity of purified sample in the biofilm assay (Pseudomonas aeruginosa): active in a dose dependent manner

Compound: NC(=O)C(N)Cc1ccc(F)cc1 (stereo not shown) [4-fluorophenylalanine amide, 2-Amino-3-(4-fluorophenyl)propanamide]
- potency in modulating/inhibiting biofilm formation (SAR studies) (Pseudomonas aeruginosa): very potent inhibitor

Compound: NC(Cc1ccccc1F)C(=O)O (stereo not shown) [Compound 2-F, 2-Amino-3-(2-fluorophenyl)propanoic acid]
- activity in preliminary screens (Pseudomonas aeruginosa): showed activity
- activity in the Biofilm Assay (Pseudomonas aeruginosa): showed activity
- potency in modulating/inhibiting biofilm formation (SAR studies) (Pseudomonas aeruginosa): potent activity
- activity of purified sample in the biofilm assay (Pseudomonas aeruginosa): active in a dose dependent manner
- activity of un-purified samples in the K357 biofilm assay (Pseudomonas aeruginosa): active

Compound: NC(Cc1cccc(F)c1)C(=O)O (stereo not shown) [Compound 3-F, 2-Amino-3-(3-fluorophenyl)propanoic acid]
- activity in preliminary screens (Pseudomonas aeruginosa): showed activity
- activity in the Biofilm Assay (Pseudomonas aeruginosa): showed activity
- potency in modulating/inhibiting biofilm formation (SAR studies) (Pseudomonas aeruginosa): potent activity
- activity of purified sample in the biofilm assay (Pseudomonas aeruginosa): active in a dose dependent manner

Compound: NC(Cc1ccc(F)cc1)C(=O)O (stereo not shown) [Compound 4-F, 2-Amino-3-(4-fluorophenyl)propanoic acid]
- activity in preliminary screens (Pseudomonas aeruginosa): showed activity
- activity in the Biofilm Assay (Pseudomonas aeruginosa): showed activity
- potency in the biofilm assay compared with tobramycin (Pseudomonas aeruginosa; FIG. 24, comparator tobramycin): as potent as tobramycin
- potency in modulating/inhibiting biofilm formation (SAR studies) (Pseudomonas aeruginosa): potent activity
- activity of purified sample in the biofilm assay (Pseudomonas aeruginosa): active in a dose dependent manner; also recorded: confirmed this activity
- activity of un-purified samples in the K357 biofilm assay (Pseudomonas aeruginosa): active

Compound: N[C@@H](Cc1ccc(I)cc1)C(=O)O [Compound 4-I]
- activity in preliminary screens (Pseudomonas aeruginosa): showed activity

- water-solubility [1]: Appreciable water-solubility
Compound: NC(Cc1ccc(F)cc1)C(=O)NCCN1CCOCC1 (stereo not shown) [Compound 5n, 2-Amino-3-(4-fluorophenyl)-N-(2-morpholinoethyl)propanamide]

- water-solubility [1]: Appreciable water-solubility
Compound: NC(Cc1ccc(F)cc1)C(=O)N1CCCC1 (stereo not shown) [Compound 5p, 2-Amino-3-(4-fluorophenyl)-1-(pyrrolidin-1-yl)propan-1-one]
